This note sets out measurements from ChEMBL document CHEMBL5143691, “Lead optimization of pyrido[2,3-d][1]benzazepin-6-one derivatives leading to the discovery of a potent, selective, and orally available human parathyroid hormone receptor 1 (hPTHR1) antagonist (DS69910557)” (Bioorg Med Chem, 2022).

Converted amounts (≈) assume the structure as drawn.

A short description of data set [1]: physchem. To be noted: JP1 fluid, pH 1.2.
Data set [2] in a line: Metabolic stability in rat liver microsomes assessed as compound remaining at 1 uM incubated for 30 mins in presence of NADPH by LC-MS/MS analysis. (Liver microsomes are vesicles of endoplasmic reticulum, rich in cytochrome P450 enzymes.)
In data set [3] the target is T1, Parathyroid hormone/parathyroid hormone-related peptide receptor (Homo sapiens, UniProt Q03431).
T1 sequence (Q03431 whole entry): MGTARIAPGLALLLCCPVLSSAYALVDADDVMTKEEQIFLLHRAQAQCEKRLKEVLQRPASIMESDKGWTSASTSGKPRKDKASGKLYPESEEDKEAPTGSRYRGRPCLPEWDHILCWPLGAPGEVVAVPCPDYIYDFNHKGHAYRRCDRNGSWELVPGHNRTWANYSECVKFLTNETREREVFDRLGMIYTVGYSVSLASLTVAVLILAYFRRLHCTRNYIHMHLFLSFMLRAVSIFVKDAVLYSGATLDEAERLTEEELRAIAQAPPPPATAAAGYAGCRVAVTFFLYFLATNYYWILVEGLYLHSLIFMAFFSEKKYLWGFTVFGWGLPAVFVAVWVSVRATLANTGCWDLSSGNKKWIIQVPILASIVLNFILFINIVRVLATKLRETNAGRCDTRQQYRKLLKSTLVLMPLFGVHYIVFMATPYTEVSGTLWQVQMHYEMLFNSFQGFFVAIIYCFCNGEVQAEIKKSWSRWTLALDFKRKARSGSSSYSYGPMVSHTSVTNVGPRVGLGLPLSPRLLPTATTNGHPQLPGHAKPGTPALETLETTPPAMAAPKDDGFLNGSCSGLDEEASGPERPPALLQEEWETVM
The data set is described as follows: Antagonist activity against human PTHR1 expressed in CHO-K1 cells assessed as reduction in PTH induced cAMP level incubated for 30 mins in presence of IBMX by cAMP assay.

Data set [4] can be described thus: physchem. To be noted: JP2 fluid, pH 6.8.
Another data set deals with hERG (KCNH2) (Homo sapiens, UniProt Q12809). The data set is described as follows: Inhibition of human ERG potassium channel expressed in CHO-K1 cells at 3 uM incubated for 5 mins by patch clamp assay. The data set is classed as toxicity, cell-based. To be noted: CHO-K1 cells expressing human ERG potassium channel.
hERG (KCNH2), sequence (Q12809 whole entry): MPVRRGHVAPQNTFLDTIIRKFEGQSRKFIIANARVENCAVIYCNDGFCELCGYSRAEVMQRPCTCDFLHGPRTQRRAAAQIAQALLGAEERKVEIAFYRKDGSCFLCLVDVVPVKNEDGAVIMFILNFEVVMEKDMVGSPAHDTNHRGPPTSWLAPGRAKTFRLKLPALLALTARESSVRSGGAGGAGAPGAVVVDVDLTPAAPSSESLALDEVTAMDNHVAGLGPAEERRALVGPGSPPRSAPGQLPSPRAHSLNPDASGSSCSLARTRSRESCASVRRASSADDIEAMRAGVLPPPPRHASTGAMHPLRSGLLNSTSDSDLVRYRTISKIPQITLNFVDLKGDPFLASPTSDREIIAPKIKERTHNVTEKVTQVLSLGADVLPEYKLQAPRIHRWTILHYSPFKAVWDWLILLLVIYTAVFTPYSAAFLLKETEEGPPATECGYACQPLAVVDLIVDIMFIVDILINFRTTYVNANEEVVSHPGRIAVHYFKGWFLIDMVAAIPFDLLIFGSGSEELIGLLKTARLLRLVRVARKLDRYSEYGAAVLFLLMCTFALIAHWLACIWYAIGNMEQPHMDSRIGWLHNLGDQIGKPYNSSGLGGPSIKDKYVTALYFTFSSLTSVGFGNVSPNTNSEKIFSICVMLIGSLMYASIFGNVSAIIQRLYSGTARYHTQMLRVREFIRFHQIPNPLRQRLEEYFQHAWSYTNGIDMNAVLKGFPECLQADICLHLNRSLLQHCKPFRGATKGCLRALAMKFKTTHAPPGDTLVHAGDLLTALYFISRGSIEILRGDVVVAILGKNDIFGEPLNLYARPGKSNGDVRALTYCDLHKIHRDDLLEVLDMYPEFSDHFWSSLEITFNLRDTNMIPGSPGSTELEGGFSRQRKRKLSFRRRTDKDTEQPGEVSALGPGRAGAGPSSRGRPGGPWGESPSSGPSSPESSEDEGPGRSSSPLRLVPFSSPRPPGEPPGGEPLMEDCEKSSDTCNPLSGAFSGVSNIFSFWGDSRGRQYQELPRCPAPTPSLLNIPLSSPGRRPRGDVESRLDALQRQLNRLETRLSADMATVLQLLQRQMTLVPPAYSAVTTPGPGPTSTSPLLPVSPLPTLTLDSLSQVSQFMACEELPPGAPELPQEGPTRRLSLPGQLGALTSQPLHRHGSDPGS
The next data set deals with T2, CYP2C8 (Homo sapiens, UniProt P10632).
T2 sequence (P10632 whole entry): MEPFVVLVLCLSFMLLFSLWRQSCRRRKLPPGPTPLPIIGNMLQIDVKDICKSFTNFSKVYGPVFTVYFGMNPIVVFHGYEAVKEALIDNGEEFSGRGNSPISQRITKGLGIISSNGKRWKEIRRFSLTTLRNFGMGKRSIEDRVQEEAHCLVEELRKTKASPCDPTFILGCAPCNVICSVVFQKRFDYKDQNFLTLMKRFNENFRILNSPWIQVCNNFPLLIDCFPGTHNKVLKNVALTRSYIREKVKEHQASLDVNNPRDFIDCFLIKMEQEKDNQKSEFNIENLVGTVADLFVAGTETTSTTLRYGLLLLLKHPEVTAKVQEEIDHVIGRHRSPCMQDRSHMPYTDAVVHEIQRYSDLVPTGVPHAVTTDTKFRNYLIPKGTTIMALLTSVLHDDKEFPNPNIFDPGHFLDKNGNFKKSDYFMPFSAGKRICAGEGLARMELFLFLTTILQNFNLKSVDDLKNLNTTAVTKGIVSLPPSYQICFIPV
Description: Inhibition of CYP2C8 (unknown origin) at 10 uM relative to control. The data set is classed as ADME.

For a further data set, the target named is CYP2D6 (Homo sapiens, UniProt P10635). Description: Inhibition of CYP2D6 (unknown origin) at 10 uM relative to control. Type of data set: ADME.
CYP2D6, sequence (P10635 whole entry): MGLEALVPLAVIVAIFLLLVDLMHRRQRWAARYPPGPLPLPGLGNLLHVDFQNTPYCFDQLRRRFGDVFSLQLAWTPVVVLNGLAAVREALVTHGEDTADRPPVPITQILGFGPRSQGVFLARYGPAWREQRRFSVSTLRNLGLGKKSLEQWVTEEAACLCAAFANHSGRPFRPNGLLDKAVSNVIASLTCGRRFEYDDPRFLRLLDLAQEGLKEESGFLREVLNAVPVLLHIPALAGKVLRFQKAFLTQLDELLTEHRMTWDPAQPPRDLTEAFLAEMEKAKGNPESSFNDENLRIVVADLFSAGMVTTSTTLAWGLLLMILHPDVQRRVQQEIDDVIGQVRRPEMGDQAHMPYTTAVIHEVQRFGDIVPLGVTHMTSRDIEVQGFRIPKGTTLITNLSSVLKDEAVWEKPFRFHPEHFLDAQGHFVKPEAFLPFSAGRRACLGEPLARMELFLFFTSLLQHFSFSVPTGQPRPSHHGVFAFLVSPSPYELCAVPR
The next data set deals with T3, CYP1A2 (Homo sapiens, UniProt P05177).
T3 sequence (P05177 whole entry): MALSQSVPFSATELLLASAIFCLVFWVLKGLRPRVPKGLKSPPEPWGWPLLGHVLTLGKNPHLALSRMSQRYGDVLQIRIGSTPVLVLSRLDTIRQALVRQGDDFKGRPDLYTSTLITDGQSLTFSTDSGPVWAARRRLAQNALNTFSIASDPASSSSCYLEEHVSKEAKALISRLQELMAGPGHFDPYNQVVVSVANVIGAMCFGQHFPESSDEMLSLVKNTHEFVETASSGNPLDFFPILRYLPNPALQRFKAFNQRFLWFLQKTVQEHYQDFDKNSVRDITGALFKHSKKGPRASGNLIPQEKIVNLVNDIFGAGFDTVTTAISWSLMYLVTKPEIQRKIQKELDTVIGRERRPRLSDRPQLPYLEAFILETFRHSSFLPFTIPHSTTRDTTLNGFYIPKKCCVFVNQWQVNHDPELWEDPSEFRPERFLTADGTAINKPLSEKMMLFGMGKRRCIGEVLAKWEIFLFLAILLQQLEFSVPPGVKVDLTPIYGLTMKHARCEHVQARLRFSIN
Description: Inhibition of CYP1A2 (unknown origin) at 10 uM relative to control. Type of data set: ADME.

The target of a further data set is CYP2C19 (Homo sapiens, UniProt P33261). The data set is described as follows: Inhibition of CYP2C19 (unknown origin) at 10 uM relative to control. Type of data set: ADME.
CYP2C19, sequence (P33261 whole entry): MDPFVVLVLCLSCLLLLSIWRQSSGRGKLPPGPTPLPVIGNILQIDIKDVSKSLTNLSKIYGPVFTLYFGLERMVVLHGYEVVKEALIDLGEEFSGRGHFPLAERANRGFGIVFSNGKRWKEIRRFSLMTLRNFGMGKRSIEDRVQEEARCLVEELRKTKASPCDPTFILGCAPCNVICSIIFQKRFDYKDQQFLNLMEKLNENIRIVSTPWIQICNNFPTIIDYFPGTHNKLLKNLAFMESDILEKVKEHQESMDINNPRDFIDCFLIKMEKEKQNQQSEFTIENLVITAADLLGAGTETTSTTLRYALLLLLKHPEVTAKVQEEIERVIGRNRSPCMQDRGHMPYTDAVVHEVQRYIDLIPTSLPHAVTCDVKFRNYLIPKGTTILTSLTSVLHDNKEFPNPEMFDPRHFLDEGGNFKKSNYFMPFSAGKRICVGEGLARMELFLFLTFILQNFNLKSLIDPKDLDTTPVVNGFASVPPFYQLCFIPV
The nature of data set [5]: Distribution coefficient, log D of compound in 1-octanol and aqueous phosphate buffered saline at pH 7.4 incubated for 30 mins by HPLC-MS analysis. The note with it: 1-octanol/phosphate buffered saline.
A short description of data set [6]: AUClast in Sprague-Dawley rat at 5 mg/kg, po by LC-MS/MS analysis. The note with it: in vivo.
A short description of a further data set: in vivo. The note with it: Sprague-Dawley, rat, po, 5 mg/kg.

As for `CC1(C)C(=O)N(c2ccc(N3CC(O)(CNC4CCOCC4)C3)cc2)c2cc(Cl)ccc2-c2cc(Cl)cnc21`, the values for the solubility at 4 h in “physchem [1]” and in “physchem [4]” were 940 µg/mL (≈ 1660 µM) and 88 µg/mL (≈ 155 µM), respectively. Also, the amount remaining (usually what is left of the initial amount, in per cent) at 0.5 h, 1 µM in [2] stood at 82%. Moreover, the half-inhibitory concentration (IC50) (usually the point on the concentration scale where inhibition reaches its midpoint) in data set [3] was 840 nM.
The like results for `COC(=O)C1(CNC2CCOCC2)CN(c2ccc(N3C(=O)C(C)(C)c4ncc(Cl)cc4-c4ccc(Cl)cc43)cc2)C1` were, in that order, 160 µg/mL (≈ 262 µM), 0.7 µg/mL (≈ 1.15 µM), 23% and 110 nM.
On to `COC1(CN(C)C2CCOCC2)CN(c2ccc(N3C(=O)C(C)(C)c4ncc(Cl)cc4-c4ccc(Cl)cc43)cc2)C1`, for which the solubility (in general, how much of the substance goes into solution per volume) at 4 h in “physchem [1]” is 530 µg/mL (≈ 890 µM); in “physchem [4]” it was 2.5 µg/mL (≈ 4.2 µM). In addition, in [2], the amount remaining at 0.5 h, 1 µM was found to be 23%. Moreover, the 50% inhibitory concentration (IC50) in data set [3] was found to be 780 nM.
In the case of `CC1(C)C(=O)N(c2ccc(N3CC(CN[C@H]4CC[C@H](C(=O)O)CC4)C3)cc2)c2cc(Cl)ccc2-c2cc(Cl)cnc21`, at hERG (KCNH2), the inhibition (as a rule, the relative decrease from the control value, in per cent) at 5 min, 3 µM is 0%.
Take `CC1(C)C(=O)N(c2ccc(N3CC(CNC4CCOCC4)(C(=O)O)C3)cc2)c2cc(Cl)ccc2-c2cc(Cl)cnc21`: the solubility at 4 h in “physchem [1]” amounted to 100 µg/mL (≈ 168 µM); in the data set “physchem [4]” it was 97 µg/mL (≈ 163 µM). The fraction remaining at 0.5 h, 1 µM in [2] stood at 93%. Moreover, in data set [3], the IC50 stood at 23000 nM.
`COC1(CN[C@H]2CC[C@H](C(=O)O)CC2)CN(c2ccc(N3C(=O)C(C)(C)c4ncc(Cl)cc4-c4ccc(Cl)cc43)cc2)C1` registered an inhibition at 5 min, 3 µM against hERG (KCNH2) of 0%.
In the case of `CC1(C)C(=O)N(c2ccc(N3CC(F)(CN[C@H]4CC[C@H](C(=O)O)CC4)C3)cc2)c2cc(Cl)ccc2-c2cc(Cl)cnc21`, the inhibition at 10 µM at CYP2C8, against CYP2D6, at CYP1A2 and against CYP2C19 was less than 50% in each case. The compound also returned an inhibition at 5 min, 3 µM against hERG (KCNH2) of 2%.
Regarding `CC1(C)C(=O)N(c2ccc(N3CC(F)(CNC45CCC(C(=O)O)(CC4)CC5)C3)cc2)c2cc(Cl)ccc2-c2cc(Cl)cnc21`, in [5], the logD – broadly, the decadic logarithm of the distribution of all forms, ionised or not, between an organic phase and buffer at a given pH – at 0.5 h turned out to be 2.8. Moreover, the fraction remaining at 0.5 h, 1 µM in [2] is 97%. Besides, in data set [6], the AUC(0-t) (in general, exposure summed from dosing to a finite time, without extrapolation to infinity) stood at 11900 ng·h/mL. Also, the half-maximal inhibitory concentration (IC50) in data set [3] turned out to be 90 nM. Besides, the Cmax (usually the maximum level reached in the sampled fluid or tissue) in “in vivo” amounted to 900 ng/mL.
